The nature of data set [1]: Pharmacokinetic profile in the monkey. The class given is in vivo.
For the next data set, the system named is Jurkat clone E6.1 cells. Description: Antigen-induced calcium flux in anti-CD3 stimulated Jurkat cells (Fura 2AM). It counts as cell-based. Conditions: Homo sapiens, Jurkat, read-out: Calcium (% inhibition at 20 μM), 20 μM; anti-CD3 mAb stimulated Jurkat clone E6.1 cells. The source says: Elevation of cytoplasmic calcium concentration is a common and crucial event which follows the activation of many types of cell surface receptors. Increases in intracellular calcium that occur following agonist activation of inositol lipid hydrolysis are the results of calcium release from the endoplasmic reticulum and the influx of calcium through the plasma membrane. Increases in cytosolic calcium concentration are involved in many important cellular responses in the inflammatory process including adhesion, motility, gene expression, proliferation, and degranulation. Changes in intracellular calcium concentrations can affect both short and long term cellular responses. An assay method to evaluate a test compound's impact on calcium flux is provided as follows.
The resulting supernatants are discarded and each pellet is washed in 10 mL HBSS. Cell suspensions are accumulated and centrifuged for 5 minutes at 900 RPM to form a cell pellet. The resulting supernatant is discarded and the pellet is resuspended in HBSS at 1×10^7cells/mL. The cell suspension is transferred to a 20 mm petri dish and incubated at 37° C., 5% CO2 for 20 minutes.
One volume of Fura 2AM is mixed to one volume of detergent Pluronic F127. Cells are labeled with 4 μL of probe solution to each mL of cell suspension. The petri dish is wrapped in aluminum foil to protect from light and placed on a plate shaker for 30 minutes at room temperature.
The following steps are done in the laminar flow hood with the fluorescent lights turned off. The petri dish is removed from the shaker and the labeled cell suspension is transferred to a 15 mL conical tube and washed twice with HBSS as above. The cell pellet is resuspended in 12 mL HBSS and left wrapped in foil for 30 minutes at room temperature. The labeled cell suspension is aliquoted (100 μL/well) into a Dynex 96 well white opaque tissue culture plate. […] Selected compounds were tested for dose related activity. Test samples and activator (anti-CD3 mAb at final concentration of 4 μg/mL, PharMingen) are added manually (50 μL), such that the minimum time to acquire the first data point after stimulation is approximately 30 seconds. The calcium influx response to anti-CD3 mAb is measured as an “end point” assay. The entire plate is read in 100 seconds using a kinetic of 1 second per well.
The plate is read before the addition of anti-CD3 to monitor non-specific effect of samples/drugs. Fluorescence emission is measured at 510 nm with excitation alternating between 340 and 380 every second using an excitation/emission filter pair. Data from these dual wavelengths are represented as a ratio of 2 excitations wavelengths. This ratio is independent of intracellular dye and cell concentrations, enabling real comparison between experiments.
For orientation: Calcium assays in cells follow changes in intracellular calcium, usually with a dye or a luminescent sensor.

Data set [2] concerns sensitized Brown Norway rats. Description: Ovalbumin-induced accumulation of inflammatory cells in lung lavage fluid (allergen-induced lung inflammation). The class given is in vivo, rat. Conditions: p.o. The protocol: The ability of a compound to inhibit the allergen-induced accumulation of inflammatory cells such as eosinophils and neutrophils in the lavage fluid obtained from sensitized animals is indicative of that compound's anti-asthma activity. […] The test is conducted as follows.
Male Brown Norway rats are sensitized to ovalbumin by single intraperitoneal injection of 1 mg ovalbumin adsorbed to 100 mg […] (alum) in 1 ml sterile saline (saline control rats receive only sterile saline) on day 1, and allowed to sensitize until day 21. […] Rats are challenged with 0.5% ovalbumin in saline generated using a Devillbis nebulizer for 60 min on day 21.
Forty-eight hrs after challenge, animals are sacrificed with an overdose of intraperitoneally-delivered sodium pentobarbitol and the lungs are lavaged with cold 2×7 ml phosphate buffered saline. The recovered lavage fluid is placed on ice. The bronchoalveolar lavage fluid is centrifuged and the supernatant removed. The pellet is resuspended in phosphate buffered saline at 4° C. Cytospins are prepared and stained for differentiation and enumeration of cell types.
Test compound was administered in 300 μl corn oil (Tables 7 and 8) or water (Table 9), which were used as vehicles. Control animals received 300 μl corn oil or water alone, i.e., no drug. […] A negative value in Table 7, 8, or 9 indicates an exacerbation of the effect over the control animal.

Data set [3] can be described thus: Pharmacokinetic profile in the rat. The class given is in vivo.
Data set [4] concerns Rat Mast Cell Line (RBL-2H3). The experiment in a line: Antigen-induced release of hexosaminidase from a rat mast cell line (RBL-2H3). Conditions: Rattus norvegicus, RBL-2H3, inhibition of antigen (DNP-HSA)-induced hexosaminidase release, tested at 0.3, 3, 10 and 30 μM, read-out: Hex IC50. The class given is cell-based. The protocol:
The anti-allergic effects of a compound of the present invention was evaluated by measuring its effect on antigen-induced secretion of hexosaminidase from a passively sensitized rat mast cell line. The ability of a test compound to inhibit the release of mast cell granule contents, e.g., histamine and hexosaminidase, is indicative of the anti-allergy and/or anti-asthma activity of the compound. Hexosaminidase is released from the mast cell granule along with histamine and other mediators during antigen challenge. The test is performed as follows.
RBL-2H3 cells are grown in culture and passively sensitized for 1 hour at 37° C. to dinitrophenol (DNP) using anti-human-DNP (IgE). Cells are incubated with test compound for 30 minutes at 37° C. and stimulated with 0.5 μg/ml DNP-HSA (antigen) for 30 minutes. Aliquots of the supernatant are removed and used to measure the amount of hexosaminidase released during challenge with the antigen. The amount of hexosaminidase present in the supernatant is determined colorimetrically by monitoring the enzymatic metabolism of p-nitrophenyl-N-acetyl-β-D-glucosaminide (p-NAG) over a period of 60 minutes at 405 nm. The effect of each test compound is determined as a percentage of the antigen-induced response (minus background release) obtained in the presence of DMSO alone. These values are used to determine the degrees of inhibition of antigen-induced hexosaminidase release from the cells.

The nature of data set [5]: Metabolic stability in human liver S9 fractions. It counts as in vitro ADME. The source says:
The therapeutic effectiveness of a test compound can be often directly related to its metabolic stability in vivo. The majority of known, marketed drugs are metabolized by a group of enzymes known as P450 enzymes. The S9 fraction of human liver contains all the P450 enzymes and also cytoplasmic enzymes that may be involved in the metabolism of new chemical entities. Metabolism in vitro using human S9 fractions is a standard assay to evaluate relative metabolic stability of new compounds. The test is performed as follows.
Reagents are thawed on ice and combined to make up a Master Mix as follows: Potassium phosphate (100 mM, pH 7), G6P (0.25 mM), G6PDH (2 U/ml), NADPH (1 mM), UDP (0.25 mM), APPS (0.25 mM), and S9 fraction (2 mg/ml). A volume of 498 μl of the Master mix is dispensed into each microcentrifuge tube. A volume of 2 μl of 2.5 mM test compound (final concentration of 10 μM) is dispensed into the center of the lid of the appropriate tube, and the lids gently closed to prevent mixing. Synchronous combination of test compound and master mix is achieved by simultaneous ten times inversion of the tubes, which are then incubated at 37° C. and shaken at 150 rpm for the appropriate incubation times. While incubation is in progress, all 0 time samples are mixed individually by three times inversion followed by the immediate addition of 500 μl ice cold acetonitrile with three times inversion to stop the reaction. Immediately after each 15 minutes and 30 minutes incubation is complete, ice cold acetonitrile is added to each tube and the tubes mixed by three times inversion. All sample tubes are incubated at −80° C. for a minimum of 15 minutes, thawed and remixed by inversion. Aliquots of 650 μl are transferred to Chromatographic Specialties micro-system spin filter system tubes (0.2 μm nylon membrane, C618505) and centrifuged at 13,000 rpm for 48 seconds. The sample filtrates are stored at −80° C.
Sample filtrates are analyzed on LCMS, and percent remaining after 15 and 30 minute incubation is calculated relative to the 0 minute incubation.
The metabolic stability of various compounds are summarized in Table 10 as the percent remaining after 15 or 30 minutes incubation with human liver S9 fractions.

Another data set in a line: physchem. Conditions: water.
Where [6] appears, read: 5 mg/kg/day for 4 days, corn oil, lung lavage fluid, relative to control animals.
The mark [7] stands for this setting: 0.1 mg/kg, 4 days qd, water vehicle.
Where [8] appears, read: 0.3 mg/kg, 4 days qd, water vehicle.
Setting [9] is: 1 mg/kg, 4 days qd, water vehicle.

These results are taken from patent publication US20040034216A1, “3-Nitrogen-6,7-dioxygen steroids and uses related thereto” (priority 2003, published 2004).

pIC50: −log10 of the molar value.

As usually defined, the inhibition is the drop in the measured response relative to a control, in per cent. What is called pIC50 is the negative decadic logarithm of the IC50, by convention in mol/L. In the case of `C/C=C1/CCC2C3C(CC[C@]12C)[C@@]1(C)CC[C@H](N)CC1[C@@H](O)[C@@H]3O` (some centres unmarked) [Compound 28], the “maximal concentration in plasma” value in data set [1] was “predictable and linear”; in data set [3] it was “predictable and linear”. For the same compound, the inhibition at 20 µM with Jurkat clone E6.1 cells was 29%. In addition, the “% inhibition of eosinophils” value in data set [2] (setting [6]) is listed as 85%. Besides, the pIC50 in data set [4] was 5.17. Moreover, in data set [5] (human, s9, 0.5 h, 10 μM, pH 7), the “remains unchanged after 15 and even 30 minutes incubation with human S9 fractions” value (“remains unchanged … with human S9 fractions” below) is on record as 100%.

As to `CC(F)=C1CCC2C3C(CC[C@]12C)[C@@]1(C)CCC(N)CC1[C@@H](O)[C@@H]3O` (some centres unmarked) [Compound 64], the inhibition at 20 µM with Jurkat clone E6.1 cells stood at 6.7%. The “% inhibition of eosinophils” value in data set [2] (setting [6]) stood at 62%. Besides, in data set [4], the pIC50 is 4.84.

As a reminder, the solubility is how much of the substance goes into solution per volume. With `C/C=C1/CCC2C3C(CC[C@]12C)[C@@]1(C)CC[C@H](N)CC1[C@@H](O)[C@@H]3O` (some centres unmarked) [Compound 83], in the data set on Jurkat clone E6.1 cells, the inhibition at 20 µM is 30.3%. Besides, the “% inhibition of eosinophils” value in data set [2] (setting [6]) was found to be 67%. Besides, the solubility in the data set “physchem” is above 100 mg/mL. Also, in data set [4], the pIC50 is 5.11.

Turning to `C=C1CCC2C3C(CC[C@]12C)[C@@]1(C)CC[C@H](N)CC1[C@@H](O)[C@@H]3O` (some centres unmarked) [Compound 89], the “maximal concentration in plasma” value in data set [1] was “predictable and linear”; in data set [3] it was “predictable and linear”. Besides, the “% inhibition of eosinophils” value in data set [2] (setting [6]) amounted to 57%. Moreover, the “remains unchanged … with human S9 fractions” value in data set [5] (human, s9, 0.5 h, 10 μM, pH 7) was 100%.

In the case of `CCC1CCC2C3C(CC[C@]12C)[C@@]1(C)CCC(N)CC1[C@@H](O)[C@@H]3O` (some centres unmarked) [Compound 96], in the data set with Jurkat clone E6.1 cells, the inhibition at 20 µM worked out at 47.9%. Further, the “% inhibition of eosinophils” value in data set [2] (setting [6]) was −9%. For the same compound, the negative-log IC50 (pIC50) in data set [4] was 5.11.

With `CC1(C)CCC2=C1CCC1C2[C@@H](O)[C@H](O)C2C[C@@H](N)CC[C@]12C` (some centres unmarked) [Compound 139], the inhibition at 20 µM in the data set on Jurkat clone E6.1 cells is 26.3%. In data set [2] (setting [7]), the “% inhibition of eosinophils” value is recorded as 46%, the “% inhibition of lymphocytes” value was found to be 19% and the “% inhibition of neutrophils” value was 42%. Also, in data set [2] (setting [8]), the “% inhibition of eosinophils” value came to 41%, the “% inhibition of lymphocytes” value worked out at 34% and the “% inhibition of neutrophils” value is recorded as 62%. In addition, in data set [2] (setting [9]), the “% inhibition of eosinophils” value stood at 42%, the “% inhibition of lymphocytes” value turned out to be 56% and the “% inhibition of neutrophils” value was 63%. For the same compound, the negative logarithm of the IC50 (pIC50) in data set [4] was 4.99. For the same compound, the “% remaining after 15 min” value in data set [5] (human, s9, 15 min, 10 μM, pH 7) is listed as 109 ± 26%. In addition, the “remains unchanged … with human S9 fractions” value in data set [5] (human, s9, 0.5 h, 10 μM, pH 7) is listed as 100%. Also, the “% remaining after 30 min” value in data set [5] (human, s9, 30 min, 10 μM, pH 7) was 100 ± 10%.

For the compound `CCC1(C)CCC2=C1CCC1C2C(O)C(O)C2CC(N)CCC21C.Cl` (centres unmarked) [Compound 143], the “remains unchanged … with human S9 fractions” value in data set [5] (15 and 30 minutes, human S9 fractions) amounted to 100%.
